Test results from patent US20250062039A1, “ESTIMATION OF PHARMACOKINETIC (PK) PARAMETERS OF DRUG CANDIDATES USING UNIVERSAL PK PARAMETERS BOUNDS” (Tata Consultancy Services Limited, priority 2023, published 2025).

How the values were obtained:
[1] = human, in vivo, po, 500 mg
[2] = Oral 500 mg; cited from earlier work
clinical = settings: human, in vivo, po, 500 mg

## CC[C@H]1OC(=O)[C@H](C)[C@@H](O[C@H]2C[C@@](C)(OC)[C@@H](O)[C@H](C)O2)[C@H](C)[C@@H](O[C@@H]2O[C@H](C)C[C@H](N(C)C)[C@H]2O)[C@](C)(O)C[C@@H](C)CN(C)[C@H](C)[C@@H](O)[C@]1(C)O [Azithromycin]
[1]
  CL, Selected Parameter Value: 280.35 mL/min
  Vd beta, Selected Parameter Value: 5475.92 L
  Vss, Selected Parameter Value: 4218.4 L
[2]
  AUC, Maximum: 6380 ng·h/mL
  AUC, Mean Value: 4860 ng·h/mL
  AUC, Minimum: 3500 ng·h/mL
  CL, Mean Value: 664.84 mL/min
  K10, Maximum: 0.12 h⁻¹
  K10, Mean Value: 0.08 h⁻¹
  K10, Minimum: 0.05 h⁻¹
  K12, Maximum: 0.18 h⁻¹
  K12, Mean Value: 0.12 h⁻¹
  K12, Minimum: 0.07 h⁻¹
  K21, Maximum: 0.06 h⁻¹
  K21, Mean Value: 0.04 h⁻¹
  K21, Minimum: 0.03 h⁻¹
  Ke, Maximum: 0.02 h⁻¹
  Ke, Mean Value: 0.02 h⁻¹
  Ke, Minimum: 0.02 h⁻¹
  T1/2 beta, Mean Value: 55.46 h
  V1, Maximum: 1025.35 L
  V1, Mean Value: 586.83 L
  V1, Minimum: 341.94 L
  V2, Maximum: 3193.05 L
  V2, Mean Value: 1779.12 L
  V2, Minimum: 798.71 L
  Vd beta, Mean Value: 3219.51 L
  Vss, Maximum: 4218.4 L
  Vss, Mean Value: 2347.95 L
  Vss, Minimum: 1018.78 L
clinical
  AUC: 6380 ng·h/mL
  half-life: 76.2 h
